Target: human transferrin (Tf; hTf) (Homo sapiens, UniProt P02787)
Experiment: isothermal titration calorimetry
Format: binding

human transferrin (Tf; hTf), sequence (P02787 20-698): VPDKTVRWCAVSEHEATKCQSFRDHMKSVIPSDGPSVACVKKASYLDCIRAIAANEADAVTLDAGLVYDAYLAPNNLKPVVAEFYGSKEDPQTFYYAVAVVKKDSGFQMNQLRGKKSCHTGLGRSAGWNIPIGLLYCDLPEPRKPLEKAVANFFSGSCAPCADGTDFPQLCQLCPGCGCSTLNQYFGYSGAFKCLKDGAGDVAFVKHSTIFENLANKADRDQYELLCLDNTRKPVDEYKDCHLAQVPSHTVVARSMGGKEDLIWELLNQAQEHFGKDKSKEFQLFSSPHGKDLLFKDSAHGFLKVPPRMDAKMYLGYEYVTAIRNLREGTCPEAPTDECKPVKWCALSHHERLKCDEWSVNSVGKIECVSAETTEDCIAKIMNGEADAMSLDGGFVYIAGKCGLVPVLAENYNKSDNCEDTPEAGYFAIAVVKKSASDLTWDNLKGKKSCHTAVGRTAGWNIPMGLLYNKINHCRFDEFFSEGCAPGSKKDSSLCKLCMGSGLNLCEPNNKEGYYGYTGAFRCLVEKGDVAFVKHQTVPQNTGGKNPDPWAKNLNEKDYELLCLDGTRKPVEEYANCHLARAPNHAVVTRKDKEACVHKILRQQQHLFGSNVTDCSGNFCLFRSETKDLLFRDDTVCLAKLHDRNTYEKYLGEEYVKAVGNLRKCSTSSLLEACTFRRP

Compound `C/C=C1\[C@H]2C=C(C)C[C@]1(N)c1ccc(=O)[nH]c1C2` [Huperzine A] has a Kd of 1450 nM.
